In patent US20020137929A1, “1 - (3-heterocyclylphenyl) isothiourea, -isourea, -guanidine and -amidine herbicidal agents” (Intellectual Property Department, BASF Aktiengesellschaft, priority 1998, published 2002):

Assays:
[1] = tested on: ECHORC (Watergrass (Calif.)); experiment: Preemergence weed control under flooded paddy conditions; assay type: in vivo, Echinochloa oryzoides; details: rated 3-4 weeks after treatment
Procedure, shortened: (§1)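 Visual injury scored 0-9 against control three to four weeks post-treatment, greenhouse-grown. Application: acetone/water (50/50) solutions dosed directly into flood water (1.5-3 cm over silt loam, planted top 0.5 cm), roughly 0.0313 to 0.500 kg/ha active ingredient.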

[2] = tested on: ABUTH (Velvetleaf); experiment: Preemergence herbicidal evaluation; assay type: in vivo, Abutilon theophrasti; details: rated 4-5 weeks after treatment
Procedure, shortened: (§2)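 Steps: mix seeds into potting soil; plant atop ~1 inch soil; spray compound in aqueous acetone (~0.0156-0.500 kg/ha equivalent); maintain in greenhouse with watering; rate visually 0-9 versus control at 4-5 weeks.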

[3] = tested on: CYPIR (Rice Flatsedge); experiment: Preemergence weed control under flooded paddy conditions; assay type: in vivo, Cyperus iria; details: rated 3-4 weeks after treatment
Procedure, shortened: as §1

[4] = tested on: TRZAWR (Wheat, Winter, cv Riband); experiment: Preemergence herbicidal evaluation; assay type: in vivo, Triticum aestivum; details: rated 4-5 weeks after treatment
Procedure, shortened: as §2

[5] = tested on: SAGPY (Arrowhead (Pygmaea)); experiment: Preemergence weed control under flooded paddy conditions; assay type: in vivo, Sagittaria pygmaea; details: rated 3-4 weeks after treatment
Procedure, shortened: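 Greenhouse paddy assay. Acetone/water (50/50 v/v) solutions dosed into flood water, equivalent to about 0.0313 to 0.500 kg/ha active ingredient, over seeds planted 0.5 cm deep in silt loam. Score: 0-9 visual, based on stand, vigor, malformation, size and chlorosis, 3 to 4 weeks after treatment.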

[6] = tested on: ORYSAT (Rice, Tebonnet); experiment: Rice tolerance to post-transplant applications, flooded paddy conditions (Table IV); assay type: in vivo, Oryza sativa, (L.) Tebonnet; details: flooded paddy, post-transplant rice, 3-4 weeks after treatment
Procedure, shortened: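 With weeds 3 to 5 cm tall and rice at the 1.5 to 2.5 leaf stage, containers were flooded and water held 1.5 to 3 cm above soil. Compounds in 50/50 v/v aqueous/acetone went into the flood water at about 0.0313 to 0.500 kg/ha a.i. Effects were visually rated 0–9 against controls after three to four weeks in the greenhouse.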

[7] = tested on: MOOVA (Monochoria); experiment: Postemergence weed control under flooded paddy conditions; assay type: in vivo, Monochoria vaginalis; details: postemergence weeds, 3-4 weeks after treatment
Procedure, shortened: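 Injury ratings (0–9 scale covering stand, vigor, malformation, size, chlorosis and overall appearance versus control) were made three to four weeks after treatment. Test material, about 0.0313 to 0.500 kg/ha a.i. in 50/50 v/v aqueous/acetone, was added to flood water 1.5 to 3 cm deep over 3 to 5 cm weeds and 1.5 to 2.5 leaf rice.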

[8] = tested on: ORYSAT (Rice, Tebonnet); experiment: Rice tolerance to post-transplant applications, flooded paddy conditions (Table III); assay type: in vivo, Oryza sativa, (L.) Tebonnet; details: post-transplant rice, flooded paddy, rated 3-4 weeks after treatment
Procedure, shortened: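 Injury scored 0-9 by eye against untreated control, judging stand, vigor, malformation, size and chlorosis, three to four weeks after treatment. Compound in 50/50 aqueous/acetone, about 0.0313 to 0.500 kg/ha, was applied to paddy water (1.5 to 3 cm depth) three days after transplanting paired ten-day-old Tebonnet rice seedlings.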

[9] = tested on: IPOSS (Morningglory Spp.); experiment: Preemergence herbicidal evaluation; assay type: in vivo, Ipomoea Spp.; details: rated 4-5 weeks after treatment
Text: (§3) Results of herbicide evaluation are expressed on a rating scale (0-9). The scale is based upon a visual observation of plant stand, vigor, malformation, size, chlorosis and overall plant appearance as compared with a control.
The preemergence herbicidal activity of the test compounds of the present invention is exemplified by the following tests in which the seeds of a variety of monocotyledonous and dicotyledonous plants are separately mixed with potting soil and planted on top of approximately one inch of soil in separate pint cups. After planting, the cups are sprayed with the selected aqueous acetone solution containing test compound in sufficient quantity to provide the equivalent of about 0.0156 to 0.500 kg per hectare of test compound per cup. The treated cups are then placed on greenhouse benches, watered and cared for in accordance with conventional greenhouse procedures. From four to five weeks after treatment, the tests are terminated and each cup is examined and rated according to the rating system provided in Example 37.
The compounds evaluated are reported by compound number given in Example 37.

[10] = tested on: IPOSS (Morningglory Spp.); experiment: Postemergence herbicidal evaluation; assay type: in vivo, Ipomoea Spp.
Procedure: In the tests, seedling plants are grown in jiffy flats for about two weeks. The test compounds are dispersed in 50/50 acetone/water mixtures containing 0.5% TWEEN®20, a polyoxyethylene sorbitan monolaurate surfactant of Atlas Chemical Industries, in sufficient quantities to provide the equivalent of about 0.0156 kg to 0.500 kg per hectare of active compound when applied to the plants through a spray nozzle operating at 40 psi for a predetermined time. After spraying, the plants are placed on greenhouse benches and are cared for in accordance with conventional greenhouse procedures. From four to five weeks after treatment, the seedling plants are examined and rated according to the rating system set forth below. Where more than one test is involved for a given compound, the data are averaged.
Plant species employed in these evaluations are reported by header abbreviation, common name and scientific name.
as §3

O=C1CSC(=Nc2cc(N3C(=O)C4=C(CCCC4)C3=O)c(F)cc2Cl)N1c1ccccc1 [Compound 3, N-{4-chloro-2-fluoro-5-[(4-oxo-3-phenyl-2-thiazolidinylidene)amino]phenyl}-1-cyclohexene-1,2-dicarboximide]
3.0: Herbicidal rating ORYSAT (rice tolerance) ([8]; 0.5000 kg/ha)
6.0: ABUTH preemergence herbicidal rating ([2]; rate 0.5000 kg/ha)
1.0: Herbicidal rating ORYSAT (rice tolerance) ([6]; rate 0.1250 kg/ha) | Herbicidal rating ORYSAT (rice tolerance) ([6]; rate 0.2500 kg/ha) | Herbicidal rating MOOVA ([7]; rate 0.0625 kg/ha)
4.5: Herbicidal rating MOOVA ([7]; rate 0.1250 kg/ha) | Herbicidal rating MOOVA ([7]; rate 0.2500 kg/ha)
4.0: Herbicidal rating ECHORC ([1]; 0.5000 kg/ha) | IPOSS preemergence herbicidal rating ([9]; rate 0.5000 kg/ha) | IPOSS herbicidal rating ([10]; rate 0.0625 kg/ha)
9.0: IPOSS herbicidal rating ([10]; rate 0.1250 kg/ha) | IPOSS herbicidal rating ([10]; rate 0.5000 kg/ha)
8.0: IPOSS herbicidal rating ([10]; rate 0.2500 kg/ha)
2.0: Herbicidal rating ECHORC ([1]; 0.2500 kg/ha) | ABUTH preemergence herbicidal rating ([2]; rate 0.0625 kg/ha) | ABUTH preemergence herbicidal rating ([2]; rate 0.1250 kg/ha) | TRZAWR preemergence herbicidal rating ([4]; rate 0.2500 kg/ha) | TRZAWR preemergence herbicidal rating ([4]; rate 0.5000 kg/ha) | Herbicidal rating ORYSAT (rice tolerance) ([6]; rate 0.5000 kg/ha) | Herbicidal rating ORYSAT (rice tolerance) ([8]; 0.1250 kg/ha) | Herbicidal rating ORYSAT (rice tolerance) ([8]; 0.2500 kg/ha) | IPOSS preemergence herbicidal rating ([9]; rate 0.2500 kg/ha) | IPOSS herbicidal rating ([10]; rate 0.0313 kg/ha)
0.0: Herbicidal rating ECHORC ([1]; 0.0625 kg/ha) | Herbicidal rating ECHORC ([1]; 0.1250 kg/ha) | ABUTH preemergence herbicidal rating ([2]; rate 0.2500 kg/ha) | Herbicidal rating CYPIR ([3]; 0.0625 kg/ha) | Herbicidal rating CYPIR ([3]; 0.1250 kg/ha) | Herbicidal rating CYPIR ([3]; 0.2500 kg/ha) | Herbicidal rating CYPIR ([3]; 0.5000 kg/ha) | TRZAWR preemergence herbicidal rating ([4]; rate 0.0313 kg/ha) | TRZAWR preemergence herbicidal rating ([4]; rate 0.0625 kg/ha) | TRZAWR preemergence herbicidal rating ([4]; rate 0.1250 kg/ha) | Herbicidal rating SAGPY ([5]; 0.0625 kg/ha) | Herbicidal rating SAGPY ([5]; 0.1250 kg/ha) | Herbicidal rating SAGPY ([5]; 0.2500 kg/ha) | Herbicidal rating SAGPY ([5]; 0.5000 kg/ha) | Herbicidal rating ORYSAT (rice tolerance) ([6]; rate 0.0625 kg/ha) | Herbicidal rating ORYSAT (rice tolerance) ([8]; 0.0625 kg/ha) | IPOSS preemergence herbicidal rating ([9]; rate 0.0313 kg/ha) | IPOSS preemergence herbicidal rating ([9]; rate 0.0625 kg/ha) | IPOSS preemergence herbicidal rating ([9]; rate 0.1250 kg/ha)
5.5: Herbicidal rating MOOVA ([7]; rate 0.5000 kg/ha)

CN1C(=O)C(F)SC1=Nc1cc(N2C(=O)C3=C(CCCC3)C2=O)c(F)cc1Cl (stereo not shown) [Compound 5, N-{4-chloro-2-fluoro-5-[(5-fluoro-3-methyl-4-oxo-2-thiazolidinylidene)amino]phenyl}-1-cyclohexene-1,2-dicarboximide]
2.0: Herbicidal rating ECHORC ([1]; 0.2500 kg/ha) | TRZAWR preemergence herbicidal rating ([4]; rate 0.5000 kg/ha) | Herbicidal rating MOOVA ([7]; rate 0.2500 kg/ha) | IPOSS herbicidal rating ([10]; rate 0.0625 kg/ha)
0.0: ABUTH preemergence herbicidal rating ([2]; rate 0.0625 kg/ha) | ABUTH preemergence herbicidal rating ([2]; rate 0.1250 kg/ha) | ABUTH preemergence herbicidal rating ([2]; rate 0.2500 kg/ha) | ABUTH preemergence herbicidal rating ([2]; rate 0.5000 kg/ha) | Herbicidal rating CYPIR ([3]; 0.1250 kg/ha) | Herbicidal rating CYPIR ([3]; 0.2500 kg/ha) | Herbicidal rating CYPIR ([3]; 0.5000 kg/ha) | TRZAWR preemergence herbicidal rating ([4]; rate 0.0625 kg/ha) | TRZAWR preemergence herbicidal rating ([4]; rate 0.1250 kg/ha) | Herbicidal rating SAGPY ([5]; 0.1250 kg/ha) | Herbicidal rating SAGPY ([5]; 0.2500 kg/ha) | Herbicidal rating SAGPY ([5]; 0.5000 kg/ha) | IPOSS preemergence herbicidal rating ([9]; rate 0.0625 kg/ha) | IPOSS preemergence herbicidal rating ([9]; rate 0.1250 kg/ha) | IPOSS preemergence herbicidal rating ([9]; rate 0.2500 kg/ha) | IPOSS preemergence herbicidal rating ([9]; rate 0.5000 kg/ha) | IPOSS herbicidal rating ([10]; rate 0.0157 kg/ha)
4.0: Herbicidal rating ECHORC ([1]; 0.5000 kg/ha) | Herbicidal rating MOOVA ([7]; rate 0.5000 kg/ha) | IPOSS herbicidal rating ([10]; rate 0.1250 kg/ha)
9.0: IPOSS herbicidal rating ([10]; rate 0.2500 kg/ha) | IPOSS herbicidal rating ([10]; rate 0.5000 kg/ha)
1.0: Herbicidal rating ECHORC ([1]; 0.1250 kg/ha) | TRZAWR preemergence herbicidal rating ([4]; rate 0.2500 kg/ha) | Herbicidal rating MOOVA ([7]; rate 0.1250 kg/ha) | IPOSS herbicidal rating ([10]; rate 0.0313 kg/ha)
